# From ChEMBL document CHEMBL3885881, “DrugMatrix”
# Species on record: Rattus norvegicus
# Test: DrugMatrix - Regimen: Daily Repeat
# Assay type: toxicity, organism-based, Sprague-Dawley
# Parameters: regimen Daily Repeat, gender Male, age 6-8 weeks
# Details: in vivo, po, route oral GAVAGE, vehicle .5 % CMC; for ABSOLUTE BASOPHIL / ABSOLUTE EOSINOPHIL / ABSOLUTE LYMPHOCYTE / ABSOLUTE MONOCYTE / ABSOLUTE SEGMENTED NEUTROPHIL / BASOPHIL / EOSINOPHIL / ERYTHROCYTE COUNT / HEMATOCRIT / HEMOGLOBIN / LEUKOCYTE COUNT / LYMPHOCYTE / MEAN CORPUSCULAR HEMOGLOBIN / MEAN CORPUSCULAR HEMOGLOBIN CONCENTRATION / MEAN CORPUSCULAR VOLUME / MONOCYTE / NEUTROPHIL / NUCLEATED RED BLOOD CELLS / PLATELET COUNT: tissue Blood; for ALANINE AMINOTRANSFERASE / ALBUMIN / ALKALINE PHOSPHATASE / ASPARTATE AMINOTRANSFERASE / BLOOD UREA NITROGEN / CARBON DIOXIDE / CHLORIDE / CHOLESTEROL / CREATINE PHOSPHOKINASE / CREATININE / GLUCOSE / LACTATE DEHYDROGENASE / LIPASE / PHOSPHORUS / POTASSIUM / SODIUM / TOTAL BILIRUBIN / TOTAL PROTEIN / URIC ACID: tissue Plasma
# [1] = 0 mg/kg, 72 h, dose level Control, time 3 day
# [2] = 0 mg/kg, 120 h, dose level Control, time 5 day
# [3] = 20 mg/kg, 72 h, dose level Low, time 3 day
# [4] = 20 mg/kg, 120 h, dose level Low, time 5 day
structure (smiles),measurement,setting,value
Clc1ccc2c(c1)C(N1CCNCC1)=Nc1ccccc1O2 [AMOXAPINE],ABSOLUTE BASOPHIL,[1],0 CELLS/uL
same,ABSOLUTE EOSINOPHIL,[1],32.5 CELLS/uL
same,ABSOLUTE LYMPHOCYTE,[1],13494.17 CELLS/uL
same,ABSOLUTE MONOCYTE,[1],474 CELLS/uL
same,ABSOLUTE SEGMENTED NEUTROPHIL,[1],1932.67 CELLS/uL
same,BASOPHIL,[1],0%
same,EOSINOPHIL,[1],0.17%
same,ERYTHROCYTE COUNT,[1],5.45 x10E6/uL
same,HEMATOCRIT,[1],34.32%
same,HEMOGLOBIN,[1],13.82 G/DL
same,LEUKOCYTE COUNT,[1],15.93 x10E3/uL
same,LYMPHOCYTE,[1],84.83%
same,MEAN CORPUSCULAR HEMOGLOBIN,[1],25.38 pg
same,MEAN CORPUSCULAR HEMOGLOBIN CONCENTRATION,[1],40.27 G/DL
same,MEAN CORPUSCULAR VOLUME,[1],63.05 fL
same,MONOCYTE,[1],3%
same,NEUTROPHIL,[1],12%
same,NUCLEATED RED BLOOD CELLS,[1],0.67 /100WBC
same,PLATELET COUNT,[1],1188.5 x10E3/uL
same,ALANINE AMINOTRANSFERASE,[1],54.83 u/L
same,ALBUMIN,[1],4.22 G/DL
same,ALKALINE PHOSPHATASE,[1],427.67 u/L
same,ASPARTATE AMINOTRANSFERASE,[1],86.5 u/L
same,BLOOD UREA NITROGEN,[1],15.33 mg/dL
same,CARBON DIOXIDE,[1],24.83 mmol/L
same,CHLORIDE,[1],102.33 MEQ/L
same,CHOLESTEROL,[1],71.67 mg/dL
same,CREATINE PHOSPHOKINASE,[1],442.5 u/L
same,CREATININE,[1],0.19 mg/dL
same,GLUCOSE,[1],160.67 mg/dL
same,LACTATE DEHYDROGENASE,[1],236.5 u/L
same,LIPASE,[1],9 u/L
same,PHOSPHORUS,[1],11.97 mg/dL
same,POTASSIUM,[1],6.2 MEQ/L
same,SODIUM,[1],142.85 MEQ/L
same,TOTAL BILIRUBIN,[1],0.2 mg/dL
same,TOTAL PROTEIN,[1],5.8 G/DL
same,URIC ACID,[1],1.3 mg/dL
same,ABSOLUTE BASOPHIL,[2],0 CELLS/uL
same,ABSOLUTE EOSINOPHIL,[2],114.5 CELLS/uL
same,ABSOLUTE LYMPHOCYTE,[2],14614 CELLS/uL
same,ABSOLUTE MONOCYTE,[2],173 CELLS/uL
same,ABSOLUTE SEGMENTED NEUTROPHIL,[2],1048.5 CELLS/uL
same,BASOPHIL,[2],0%
same,EOSINOPHIL,[2],0.67%
same,ERYTHROCYTE COUNT,[2],5.66 x10E6/uL
same,HEMATOCRIT,[2],35.52%
same,HEMOGLOBIN,[2],14.27 G/DL
same,LEUKOCYTE COUNT,[2],15.95 x10E3/uL
same,LYMPHOCYTE,[2],91.33%
same,MEAN CORPUSCULAR HEMOGLOBIN,[2],25.23 pg
same,MEAN CORPUSCULAR HEMOGLOBIN CONCENTRATION,[2],40.2 G/DL
same,MEAN CORPUSCULAR VOLUME,[2],62.7 fL
same,MONOCYTE,[2],1.17%
same,NEUTROPHIL,[2],6.83%
same,NUCLEATED RED BLOOD CELLS,[2],0.33 /100WBC
same,PLATELET COUNT,[2],1229 x10E3/uL
same,ALANINE AMINOTRANSFERASE,[2],58.67 u/L
same,ALBUMIN,[2],4.32 G/DL
same,ALKALINE PHOSPHATASE,[2],382.5 u/L
same,ASPARTATE AMINOTRANSFERASE,[2],81.67 u/L
same,BLOOD UREA NITROGEN,[2],17.67 mg/dL
same,CARBON DIOXIDE,[2],27.17 mmol/L
same,CHLORIDE,[2],102.33 MEQ/L
same,CHOLESTEROL,[2],63.67 mg/dL
same,CREATINE PHOSPHOKINASE,[2],227.67 u/L
same,CREATININE,[2],0.23 mg/dL
same,GLUCOSE,[2],155.33 mg/dL
same,LACTATE DEHYDROGENASE,[2],146.5 u/L
same,LIPASE,[2],10.67 u/L
same,PHOSPHORUS,[2],11.93 mg/dL
same,POTASSIUM,[2],6.85 MEQ/L
same,SODIUM,[2],143.95 MEQ/L
same,TOTAL BILIRUBIN,[2],0.18 mg/dL
same,TOTAL PROTEIN,[2],6.02 G/DL
same,URIC ACID,[2],1.63 mg/dL
same,ABSOLUTE BASOPHIL,[3],0 CELLS/uL
same,ABSOLUTE EOSINOPHIL,[3],0 CELLS/uL
same,ABSOLUTE LYMPHOCYTE,[3],12123 CELLS/uL
same,ABSOLUTE MONOCYTE,[3],372 CELLS/uL
same,ABSOLUTE SEGMENTED NEUTROPHIL,[3],1505 CELLS/uL
same,BASOPHIL,[3],0%
same,EOSINOPHIL,[3],0%
same,ERYTHROCYTE COUNT,[3],5.61 x10E6/uL
same,HEMATOCRIT,[3],34.6%
same,HEMOGLOBIN,[3],13.67 G/DL
same,LEUKOCYTE COUNT,[3],14 x10E3/uL
same,LYMPHOCYTE,[3],86.67%
same,MEAN CORPUSCULAR HEMOGLOBIN,[3],24.47 pg
same,MEAN CORPUSCULAR HEMOGLOBIN CONCENTRATION,[3],39.53 G/DL
same,MEAN CORPUSCULAR VOLUME,[3],61.9 fL
same,MONOCYTE,[3],2.67%
same,NEUTROPHIL,[3],10.67%
same,NUCLEATED RED BLOOD CELLS,[3],0.33 /100WBC
same,PLATELET COUNT,[3],1267.33 x10E3/uL
same,ALANINE AMINOTRANSFERASE,[3],52 u/L
same,ALBUMIN,[3],4.13 G/DL
same,ALKALINE PHOSPHATASE,[3],425.33 u/L
same,ASPARTATE AMINOTRANSFERASE,[3],87 u/L
same,BLOOD UREA NITROGEN,[3],15.67 mg/dL
same,CARBON DIOXIDE,[3],26.67 mmol/L
same,CHLORIDE,[3],101.33 MEQ/L
same,CHOLESTEROL,[3],69 mg/dL
same,CREATINE PHOSPHOKINASE,[3],308 u/L
same,CREATININE,[3],0.17 mg/dL
same,GLUCOSE,[3],148.33 mg/dL
same,LACTATE DEHYDROGENASE,[3],190.67 u/L
same,LIPASE,[3],9 u/L
same,PHOSPHORUS,[3],12.47 mg/dL
same,POTASSIUM,[3],6.99 MEQ/L
same,SODIUM,[3],143.93 MEQ/L
same,TOTAL BILIRUBIN,[3],0.17 mg/dL
same,TOTAL PROTEIN,[3],5.8 G/DL
same,URIC ACID,[3],1.77 mg/dL
same,ABSOLUTE BASOPHIL,[4],0 CELLS/uL
same,ABSOLUTE EOSINOPHIL,[4],0 CELLS/uL
same,ABSOLUTE LYMPHOCYTE,[4],16690.33 CELLS/uL
same,ABSOLUTE MONOCYTE,[4],278.67 CELLS/uL
same,ABSOLUTE SEGMENTED NEUTROPHIL,[4],997.67 CELLS/uL
same,BASOPHIL,[4],0%
same,EOSINOPHIL,[4],0%
same,ERYTHROCYTE COUNT,[4],5.66 x10E6/uL
same,HEMATOCRIT,[4],34.53%
same,HEMOGLOBIN,[4],14.03 G/DL
same,LEUKOCYTE COUNT,[4],17.97 x10E3/uL
same,LYMPHOCYTE,[4],93%
same,MEAN CORPUSCULAR HEMOGLOBIN,[4],24.87 pg
same,MEAN CORPUSCULAR HEMOGLOBIN CONCENTRATION,[4],40.63 G/DL
same,MEAN CORPUSCULAR VOLUME,[4],61.17 fL
same,MONOCYTE,[4],1.33%
same,NEUTROPHIL,[4],5.67%
same,NUCLEATED RED BLOOD CELLS,[4],0.67 /100WBC
same,PLATELET COUNT,[4],1272 x10E3/uL
same,ALANINE AMINOTRANSFERASE,[4],53.33 u/L
same,ALBUMIN,[4],4.1 G/DL
same,ALKALINE PHOSPHATASE,[4],315 u/L
same,ASPARTATE AMINOTRANSFERASE,[4],72.33 u/L
same,BLOOD UREA NITROGEN,[4],18.33 mg/dL
same,CARBON DIOXIDE,[4],27.33 mmol/L
same,CHLORIDE,[4],100.33 MEQ/L
same,CHOLESTEROL,[4],84 mg/dL
same,CREATINE PHOSPHOKINASE,[4],186.33 u/L
same,CREATININE,[4],0.19 mg/dL
same,GLUCOSE,[4],146 mg/dL
same,LACTATE DEHYDROGENASE,[4],126.33 u/L
same,LIPASE,[4],10 u/L
same,PHOSPHORUS,[4],12.8 mg/dL
same,POTASSIUM,[4],6.96 MEQ/L
same,SODIUM,[4],145.2 MEQ/L
same,TOTAL BILIRUBIN,[4],0.2 mg/dL
same,TOTAL PROTEIN,[4],5.8 G/DL
same,URIC ACID,[4],1.43 mg/dL
